The nature of data set [1]: Cytostatic activity against African green monkey Vero cells by MTT assay. It is filed as ADME, cell-based. To be noted: chlorocebus sabaeus. A general note: Tetrazolium assays rely on reduction of a dye to a coloured formazan, in cell work by metabolically active cells.
Data set [2] is described as follows: Cytostatic activity against human MRC5 cells by MTT assay. It is filed as ADME, cell-based.
Data set [3] is described as follows: Cytostatic activity against African green monkey BSC1 cells by MTT assay. It is filed as ADME, cell-based, BSC-1. To be noted: chlorocebus aethiops.
The nature of data set [4]: Cytotoxicity against African green monkey Vero cells assessed as change in cell morphology after 24 to 96 hrs by light microscopic analysis. It is filed as cell-based. Particulars: chlorocebus sabaeus.
Data set [5] in a line: Cytotoxicity against human MRC5 cells assessed as change in cell morphology after 24 to 96 hrs by light microscopic analysis. It is filed as cell-based.
A short description of data set [6]: Cytotoxicity against African green monkey BSC1 cells assessed as change in cell morphology after 24 to 96 hrs by light microscopic analysis. To be noted: chlorocebus aethiops. It is filed as cell-based, BSC-1.
The test system of another data set is Human alphaherpesvirus 3. The data set is described as follows: Antiviral activity against Varicella-zoster virus VR-1367 infected in African green monkey BSC1 cells assessed as inhibition of virus plaque formation. It is filed as functional, organism-based. Particulars: BSC-1.
Another data set concerns Human betaherpesvirus 5. As to the kind of experiment: Antiviral activity against Cytomegalovirus VR-538 infected in human MRC5 cells assessed as inhibition of virus-induced cytopathogenicity. It is filed as functional, organism-based.
A further data set has as its system Human alphaherpesvirus 2. As to the kind of experiment: Antiviral activity against Herpes simplex virus type 2 VR-734 infected in African green monkey Vero cells assessed as inhibition of virus-induced cytopathogenicity. It is filed as functional, organism-based. A general note: Protection from cytopathic effect is a common read-out in antiviral testing.
The subject of another data set is Human alphaherpesvirus 1. As to the kind of experiment: Antiviral activity against Herpes simplex virus type 1 VR-260 infected in African green monkey Vero cells assessed as inhibition of virus-induced cytopathogenicity. It is filed as functional, organism-based.
Another data set relates to Human adenovirus 2. As to the kind of experiment: Antiviral activity against Adenovirus 2 VR-1080 infected in African green monkey Vero cells assessed as inhibition of virus-induced cytopathogenicity. It is filed as functional, organism-based.
Another data set has as its system Coxsackievirus B4. The data set is described as follows: Antiviral activity against Coxsackievirus B4 VR-1035 infected in African green monkey Vero cells assessed as inhibition of virus-induced cytopathogenicity. It is filed as functional, organism-based.
In the next data set the test system is Echovirus E9. As to the kind of experiment: Antiviral activity against Human echovirus 9 VR-1050 infected in African green monkey Vero cells assessed as inhibition of virus-induced cytopathogenicity. It is filed as functional, organism-based.
A further data set concerns Poliovirus 1. The data set is described as follows: Antiviral activity against Poliovirus 1 Sabin VR-1562 infected in African green monkey Vero cells assessed as inhibition of virus-induced cytopathogenicity. It is filed as functional, cell-based. Particulars: Human poliovirus 1 strain Sabin.

Active and inactive are the calls of the source. No cut-off for these calls is given here.

Broadly, the CC50 is the concentration that lowers cell viability or growth by half. Regarding `COc1ccc(-c2cc3cn(C4CC(CO)N(C)O4)c(=O)nc3o2)cc1` (racemic), the CC50 is 62.5 µM in [1], 31.2 µM in [2] and 7 µM in data set [3]. The MCC in data set [4] came to 62.5 µM; in data set [5], 62 µM; in data set [6], 62 µM. Moreover, the inhibition entry in the data set with Human alphaherpesvirus 3, in the data set with Human betaherpesvirus 5, in the data set on Human alphaherpesvirus 2, with Human alphaherpesvirus 1, with Human adenovirus 2 and in the data set with Coxsackievirus B4 was “inactive” throughout. The inhibition result in the data set with Echovirus E9 and with Poliovirus 1 was “inactive” each time.
With `CCCCCc1ccc(-c2cc3cn(C4CC(CO)N(C)O4)c(=O)nc3o2)cc1` (racemic), the CC50 in [1] turned out to be 3 µM; in [2] it was 1.5 µM; in data set [3] it was 0.7 µM. Moreover, the MCC in [4], in [5] and in [6] was 6 µM throughout. The inhibition result with Human alphaherpesvirus 3, in the data set on Human betaherpesvirus 5, in the data set with Human alphaherpesvirus 2, in the data set with Human alphaherpesvirus 1, in the data set on Human adenovirus 2 and in the data set with Coxsackievirus B4 was “inactive” each time. Besides, the inhibition entry in the data set on Echovirus E9 and in the data set with Poliovirus 1 was “inactive” throughout.
`CN1OC(n2cc3ccoc3nc2=O)CC1CO` (racemic): the CC50 in data set [1] is 125 µM; in [2] it was greater than 250 µM; in [3], 62 µM. Moreover, the figures for the MCC in data set [4], in [5] and in data set [6] were greater than 500 µM, greater than 250 µM and greater than 250 µM, respectively. Further, the inhibition entry with Human alphaherpesvirus 3, with Human betaherpesvirus 5, in the data set with Human alphaherpesvirus 2, with Human alphaherpesvirus 1, in the data set on Human adenovirus 2 and in the data set with Coxsackievirus B4 was “inactive” throughout. Besides, the inhibition entry with Echovirus E9 and with Poliovirus 1 was “inactive” in each case.
On to `CN1OC(n2cc3cc(-c4ccccc4)oc3nc2=O)CC1CO` (racemic), for which the CC50 came to 125 µM in data set [1], 125 µM in [2] and 32 µM in data set [3]. Moreover, the figures for the MCC in data set [4], in data set [5] and in data set [6] were 125 µM, greater than 250 µM and greater than 250 µM, respectively. Moreover, the inhibition result in the data set with Human alphaherpesvirus 3, in the data set with Human betaherpesvirus 5, with Human alphaherpesvirus 2, in the data set with Human alphaherpesvirus 1, with Human adenovirus 2 and with Coxsackievirus B4 was “inactive” each time. In addition, the inhibition result in the data set on Echovirus E9 and with Poliovirus 1 was “inactive” each time.
`CCCc1cc2cn(C3CC(CO)N(C)O3)c(=O)nc2o1` (stereo not drawn): the figures for the CC50 in data set [1], in data set [2] and in [3] were 31.2 µM, 31.2 µM and 7 µM, respectively. The MCC in data set [4] is greater than 500 µM; in data set [5], greater than 250 µM; in data set [6], greater than 250 µM. Also, the inhibition entry in the data set with Human alphaherpesvirus 3, in the data set with Human betaherpesvirus 5, in the data set with Human alphaherpesvirus 2, in the data set with Human alphaherpesvirus 1, with Human adenovirus 2 and in the data set on Coxsackievirus B4 was “inactive” throughout. The inhibition entry in the data set on Echovirus E9 and in the data set with Poliovirus 1 was “inactive” each time.
With `Nc1nc2c(ncn2COCCO)c(=O)[nH]1`, the inhibition entry with Human alphaherpesvirus 3, in the data set with Human betaherpesvirus 5, in the data set on Human alphaherpesvirus 2, with Human alphaherpesvirus 1, with Human adenovirus 2 and in the data set on Coxsackievirus B4 was “Active” each time. The inhibition result in the data set on Echovirus E9 and in the data set with Poliovirus 1 was “Active” each time.
